Structures are written as SMILES.

What all share (type): binding
One experiment has as its target T1, MAP2K4 (Homo sapiens, UniProt P45985).
T1 construct: purchased in-house DSF panel (SGC-style construct names; the trailing A/B is a construct suffix)
T1 sequence (P45985 102-367): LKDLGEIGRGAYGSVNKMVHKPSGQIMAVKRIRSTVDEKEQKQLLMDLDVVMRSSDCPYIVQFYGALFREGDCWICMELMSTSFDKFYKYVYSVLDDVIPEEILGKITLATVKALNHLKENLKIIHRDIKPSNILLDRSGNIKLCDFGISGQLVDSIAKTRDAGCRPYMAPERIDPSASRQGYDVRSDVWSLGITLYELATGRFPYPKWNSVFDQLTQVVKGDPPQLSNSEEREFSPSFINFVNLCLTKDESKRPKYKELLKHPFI
Nature of the experiment: DSF assay. The note with it: 20 µM compound.

The next experiment deals with T2, MAPK1A (Homo sapiens, UniProt P28482).
T2 construct: purchased in-house DSF panel (SGC-style construct names; the trailing A/B is a construct suffix)
In words: DSF assay. The conditions noted are these: 20 µM compound.

The target of the next experiment is T3, MAPK6 (Homo sapiens, UniProt Q16659).
T3 construct: purchased in-house DSF panel (SGC-style construct names; the trailing A/B is a construct suffix)
Nature of the experiment: DSF assay. The note with it: 20 µM compound.

Another experiment deals with T4, CAMK2DA (Homo sapiens, UniProt Q13557).
T4 construct: purchased in-house DSF panel (SGC-style construct names; the trailing A/B is a construct suffix)
Nature of the experiment: DSF assay. The note with it: 20 µM compound. On the procedure:
(§1) Excitation and emission filters […]
(§2) curve. […] Measurements were
(§3) Kinobeads selectivity profiling of PROTACs
(§4) (Multiplexion, Heidelberg, Germany).
(§5) The cell lysate was ultracentrifuged and diluted
(§6) NaF, 1 mM DTT, protease inhibitors and phosphatase inhibitors to a final concentration of 5 mg/ml as determined by Bradford assay. For selectivity profiling of compounds the cell lysate (2.5 mg of total proteins per pulldown) was pre-incubated with increasing compound […]
(§7) µM) for 45 min at 4 °C in an end-over-end shaker. Subsequently, lysates were incubated with Kinobeads epsilon (17 µL settled beads) for 30 min at 4 °C. To assess the degree of protein depletion from the lysates by Kinobeads, the flow-through of the DMSO control was recovered

For another experiment, the target named is T5, CK2A1A (Homo sapiens, UniProt P68400).
T5 construct: purchased in-house DSF panel (SGC-style construct names; the trailing A/B is a construct suffix)
Nature of the experiment: DSF assay. The conditions noted are these: 20 µM compound. On the procedure: as §1, §2, §3, §4, §5, §6, §7

A further experiment has as its target T6, DAPK3A (Homo sapiens, UniProt O43293).
T6 construct: purchased in-house DSF panel (SGC-style construct names; the trailing A/B is a construct suffix)
Nature of the experiment: DSF assay. The conditions noted are these: 20 µM compound. On the procedure: as §1, §2, §3, §4, §5, §6, §7

Another experiment has as its target T7, EPHA5A (Homo sapiens, UniProt P54756).
T7 construct: purchased in-house DSF panel (SGC-style construct names; the trailing A/B is a construct suffix)
T7 sequence (P54756 653-939): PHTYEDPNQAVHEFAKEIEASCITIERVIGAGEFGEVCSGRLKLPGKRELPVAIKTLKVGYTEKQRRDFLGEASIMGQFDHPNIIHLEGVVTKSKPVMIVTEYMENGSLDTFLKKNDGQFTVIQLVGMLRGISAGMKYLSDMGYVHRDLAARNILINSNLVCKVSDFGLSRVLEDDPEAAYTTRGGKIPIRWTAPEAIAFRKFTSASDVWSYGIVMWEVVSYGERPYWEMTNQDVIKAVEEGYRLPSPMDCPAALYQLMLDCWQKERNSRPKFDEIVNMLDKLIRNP
Nature of the experiment: DSF assay. The note with it: 20 µM compound. On the procedure:
as §1, §2, §3, §4, §5, §6, §7

The next experiment has as its target T8, PIM1A (Homo sapiens, UniProt P11309).
T8 construct: purchased in-house DSF panel (SGC-style construct names; the trailing A/B is a construct suffix)
In words: DSF assay. The conditions noted are these: 20 µM compound. The protocol: as §1, §2, §3, §4, §5, §6, §7

A further experiment concerns the target T9, PKMYT1A (Homo sapiens, UniProt Q99640).
T9 construct: purchased in-house DSF panel (SGC-style construct names; the trailing A/B is a construct suffix)
T9 sequence (Q99640 75-362): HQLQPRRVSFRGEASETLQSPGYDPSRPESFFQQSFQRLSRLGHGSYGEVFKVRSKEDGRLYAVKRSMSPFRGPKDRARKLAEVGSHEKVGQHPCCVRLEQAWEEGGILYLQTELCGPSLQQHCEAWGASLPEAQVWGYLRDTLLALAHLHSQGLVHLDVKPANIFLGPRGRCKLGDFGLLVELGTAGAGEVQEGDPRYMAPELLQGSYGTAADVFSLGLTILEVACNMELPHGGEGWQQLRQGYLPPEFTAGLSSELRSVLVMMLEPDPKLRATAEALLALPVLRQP
Nature of the experiment: DSF assay. The conditions noted are these: 20 µM compound. The protocol:
as §1, §2, §3, §4, §5, §6, §7

A further experiment deals with T10, MARK4A (Homo sapiens, UniProt Q96L34).
T10 construct: purchased in-house DSF panel (SGC-style construct names; the trailing A/B is a construct suffix)
In words: DSF assay. The note with it: 20 µM compound.

In a further experiment the target is T11, STK17A (Homo sapiens, UniProt Q9UEE5).
T11 construct: purchased in-house DSF panel (SGC-style construct names; the trailing A/B is a construct suffix)
T11 sequence (Q9UEE5 61-321): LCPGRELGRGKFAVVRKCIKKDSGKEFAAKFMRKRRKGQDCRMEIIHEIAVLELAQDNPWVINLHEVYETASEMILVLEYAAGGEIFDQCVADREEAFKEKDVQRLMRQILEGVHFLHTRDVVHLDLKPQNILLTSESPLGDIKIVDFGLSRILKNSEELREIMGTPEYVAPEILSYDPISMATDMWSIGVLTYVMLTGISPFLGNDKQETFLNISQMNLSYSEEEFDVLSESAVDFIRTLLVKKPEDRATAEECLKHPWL
In words: DSF assay. The note with it: 20 µM compound.

The next experiment concerns the target T12, AAK1 (Homo sapiens, UniProt Q2M2I8).
T12 construct: endogenous in cells; host or cells: Jurkat (Clone E6.1) cell lysate
Nature of the experiment: Kinobeads selectivity profiling. The note with it: Jurkat lysate, dose series given in nM; for Kd: read-out: Kd (apparent dissociation constant, corrected for protein depletion). On the procedure:
as §1, §2, §3, §4, §5, §6
µM) for 45 min at 4 °C in an end-over-end shaker. Subsequently, lysates were incubated with Kinobeads epsilon (17 µL settled beads) for 30 min at 4 °C. To assess the degree of protein depletion from the lysates by Kinobeads, the flow-through of the DMSO control was recovered […]
for a pulldown of pulldown experiment where the lysate was incubated a second time with fresh Kinobeads. Beads were washed in 3 steps with buffer containing 0.4%, 0.2% and no NP40.
Bound proteins were reduced with 50 mM DTT in 8 M Urea, 40 mM Tris-HCl pH 7.4 for 30 min at room temperature. After alkylation with 55 mM chloroacetamide (CAA), the Urea concentration was reduced to 1 – 2 M and proteins were digested using trypsin. Acidified peptides were desalted and concentrated using SepPak tC18 µEluation plates (Waters).
Samples were frozen, dried by vacuum centrifugation and stored at -20 °C.
LC-MS2 analysis. Peptides were measured on a Dionex Ultimate3000 nano HPLC coupled online to an Orbitrap Fusion Lumos (Thermo Fisher Scientific) mass spectrometer.
Peptides were dissolved in 0.1% formic acid and delivered to a trap column (ReproSil-pur C18-AQ, 5 μm, Dr. Maisch, 20 mm × 75 μm, self-packed) at a flow rate of 5 μL/min in LC solvent A (0.1 % formic acid).4 After 10 min of loading, peptides were transferred to an analytical column (ReproSil Gold C18-AQ, 3 μm, Dr. Maisch, 400 mm × 75 μm, self-packed) and separated using […]
acetonitrile) in LC solvent A.
The Orbitrap Fusion Lumos was operated as follows: positive polarity; spray voltage 2.1 kV, […]
A full-scan (MS1) was recorded from 360 to 1300 m/z with a resolution of 60,000 in the Orbitrap in profile mode. The MS1 AGC target was set to 4e5 and the maxIT was set to 50 ms, RF lens value was set to 50%. Based on the full scans, precursors were targeted for the MS/MS scans […]
intensity exceeded 2.5e4. The dynamic exclusion was set to 30 sec and exclude isotopes was switched on. The MS2 quadrupole isolation window was set to 1.7 m/z. Peptide fragmentation occurred in the ion routing multipole (IRM) by HCD with a fixed collision energy mode, the […]

T8 sequence (P11309 whole entry): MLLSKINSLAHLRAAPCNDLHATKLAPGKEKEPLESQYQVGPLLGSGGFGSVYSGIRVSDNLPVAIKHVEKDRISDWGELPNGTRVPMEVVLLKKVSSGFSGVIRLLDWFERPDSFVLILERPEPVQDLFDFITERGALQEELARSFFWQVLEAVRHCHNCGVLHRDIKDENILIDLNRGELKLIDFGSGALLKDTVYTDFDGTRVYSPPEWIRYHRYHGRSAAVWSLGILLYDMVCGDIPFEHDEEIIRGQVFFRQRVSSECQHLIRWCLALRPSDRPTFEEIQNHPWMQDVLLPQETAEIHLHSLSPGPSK
T12 sequence (Q2M2I8 whole entry): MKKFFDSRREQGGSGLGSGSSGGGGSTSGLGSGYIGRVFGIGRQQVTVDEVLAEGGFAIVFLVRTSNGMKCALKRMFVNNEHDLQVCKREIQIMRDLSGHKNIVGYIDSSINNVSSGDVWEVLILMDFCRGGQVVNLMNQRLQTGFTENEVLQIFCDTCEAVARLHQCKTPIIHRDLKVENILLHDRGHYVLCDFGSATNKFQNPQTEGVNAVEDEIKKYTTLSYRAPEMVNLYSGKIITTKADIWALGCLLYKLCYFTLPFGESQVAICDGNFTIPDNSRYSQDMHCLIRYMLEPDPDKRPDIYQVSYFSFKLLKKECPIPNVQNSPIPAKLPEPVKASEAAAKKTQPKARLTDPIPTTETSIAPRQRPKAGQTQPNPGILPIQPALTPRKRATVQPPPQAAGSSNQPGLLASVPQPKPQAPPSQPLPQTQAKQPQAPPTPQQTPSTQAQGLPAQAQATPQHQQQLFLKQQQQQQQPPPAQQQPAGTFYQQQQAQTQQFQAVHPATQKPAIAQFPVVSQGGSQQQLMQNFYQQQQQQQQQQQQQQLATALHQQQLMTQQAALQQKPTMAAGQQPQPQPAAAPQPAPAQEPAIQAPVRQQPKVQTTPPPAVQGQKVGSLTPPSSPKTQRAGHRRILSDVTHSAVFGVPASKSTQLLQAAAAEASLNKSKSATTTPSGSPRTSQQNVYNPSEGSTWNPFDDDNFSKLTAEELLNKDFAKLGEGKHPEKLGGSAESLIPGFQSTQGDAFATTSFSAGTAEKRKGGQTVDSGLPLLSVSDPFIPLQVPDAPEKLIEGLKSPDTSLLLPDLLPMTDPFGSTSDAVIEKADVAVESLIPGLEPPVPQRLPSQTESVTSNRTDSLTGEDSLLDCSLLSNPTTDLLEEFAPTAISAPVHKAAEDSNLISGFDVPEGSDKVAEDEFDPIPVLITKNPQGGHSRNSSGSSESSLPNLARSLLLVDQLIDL
T5 sequence (P68400 whole entry): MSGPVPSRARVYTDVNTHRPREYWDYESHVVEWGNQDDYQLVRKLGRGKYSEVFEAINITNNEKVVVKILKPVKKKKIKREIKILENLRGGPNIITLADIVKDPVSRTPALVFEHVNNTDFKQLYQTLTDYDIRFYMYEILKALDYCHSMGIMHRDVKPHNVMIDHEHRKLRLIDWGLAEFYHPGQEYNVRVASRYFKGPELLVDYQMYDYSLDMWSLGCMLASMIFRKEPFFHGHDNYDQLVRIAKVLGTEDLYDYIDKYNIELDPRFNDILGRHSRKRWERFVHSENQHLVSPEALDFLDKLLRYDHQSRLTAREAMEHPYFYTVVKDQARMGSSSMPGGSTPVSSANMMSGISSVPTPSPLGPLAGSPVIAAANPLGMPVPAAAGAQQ
T6 sequence (O43293 9-289): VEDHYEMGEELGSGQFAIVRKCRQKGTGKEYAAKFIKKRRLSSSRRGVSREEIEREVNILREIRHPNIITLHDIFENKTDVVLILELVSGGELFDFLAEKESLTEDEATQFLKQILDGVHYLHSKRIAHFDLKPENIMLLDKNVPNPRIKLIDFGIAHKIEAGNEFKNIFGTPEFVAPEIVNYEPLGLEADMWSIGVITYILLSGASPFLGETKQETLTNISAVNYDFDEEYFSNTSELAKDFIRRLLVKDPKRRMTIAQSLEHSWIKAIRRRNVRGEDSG
T3 sequence (Q16659 9-327): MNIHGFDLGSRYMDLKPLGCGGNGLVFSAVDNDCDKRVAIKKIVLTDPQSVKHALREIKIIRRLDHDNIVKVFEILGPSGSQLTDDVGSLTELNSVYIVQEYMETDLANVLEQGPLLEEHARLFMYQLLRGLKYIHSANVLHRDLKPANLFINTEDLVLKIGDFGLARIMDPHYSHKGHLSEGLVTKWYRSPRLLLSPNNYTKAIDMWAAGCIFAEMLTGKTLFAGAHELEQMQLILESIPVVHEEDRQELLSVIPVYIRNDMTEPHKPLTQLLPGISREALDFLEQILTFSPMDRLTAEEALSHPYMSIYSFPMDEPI
T4 sequence (Q13557 11-309): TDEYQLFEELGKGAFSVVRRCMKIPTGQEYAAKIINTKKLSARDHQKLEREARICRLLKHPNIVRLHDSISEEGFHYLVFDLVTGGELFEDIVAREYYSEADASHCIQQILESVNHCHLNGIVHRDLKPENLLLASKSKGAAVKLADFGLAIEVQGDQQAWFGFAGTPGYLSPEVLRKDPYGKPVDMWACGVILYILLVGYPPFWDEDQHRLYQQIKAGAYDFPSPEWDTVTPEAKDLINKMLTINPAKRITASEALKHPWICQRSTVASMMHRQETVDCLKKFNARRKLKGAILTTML
T2 sequence (P28482 whole entry): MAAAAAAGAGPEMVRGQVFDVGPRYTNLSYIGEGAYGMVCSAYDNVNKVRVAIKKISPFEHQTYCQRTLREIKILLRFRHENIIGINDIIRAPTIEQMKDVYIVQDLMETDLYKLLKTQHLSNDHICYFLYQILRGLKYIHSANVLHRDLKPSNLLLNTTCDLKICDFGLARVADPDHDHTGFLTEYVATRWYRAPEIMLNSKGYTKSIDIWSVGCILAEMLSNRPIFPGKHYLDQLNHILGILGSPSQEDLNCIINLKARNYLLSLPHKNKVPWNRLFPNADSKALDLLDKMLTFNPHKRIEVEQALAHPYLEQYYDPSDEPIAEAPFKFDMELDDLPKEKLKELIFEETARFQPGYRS
T10 sequence (Q96L34 59-310): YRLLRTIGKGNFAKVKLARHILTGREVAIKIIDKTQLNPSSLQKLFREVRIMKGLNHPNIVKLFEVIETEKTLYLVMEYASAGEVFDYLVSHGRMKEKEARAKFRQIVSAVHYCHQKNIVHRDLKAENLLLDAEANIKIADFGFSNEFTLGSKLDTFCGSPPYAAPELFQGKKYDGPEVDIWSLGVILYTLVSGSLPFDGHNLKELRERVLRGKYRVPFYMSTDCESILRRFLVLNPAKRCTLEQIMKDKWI

As for `CCOC(=O)c1cc(Nc2cc(C3CC3)[nH]n2)nc(Nc2ccc(CC#N)cc2)n1` [compound 5], the ΔTm at 20 µM was 5.55 °C at MAP2K4; 4.85 °C at MAPK1A; -0.45 °C at MAPK6; 3.37 °C on CAMK2DA; 3.87 °C on CK2A1A; 10.6 °C at DAPK3A. For the same compound, the ΔTm at 20 µM on EPHA5A is 5.7 °C; on PIM1A it was -0.9 °C; at PKMYT1A, -1.04 °C; at MARK4A, 6.15 °C; at STK17A it was 6.97 °C. Further, the “Kd (apparent dissociation constant, corrected for protein depletion)” value on AAK1 amounted to 62.7409.

Turning to `CC(C)(C)OC(=O)NCCOCCOCCOCCOCCC(=O)N1CCN(c2cc(Nc3cc(C4CC4)[nH]n3)nc(Nc3ccc(CC#N)cc3)n2)CC1` [4-L], the thermal shift (ΔTm) at 20 µM at MAP2K4 is 2.65 °C; on MAPK1A, 3.2 °C; on MAPK6, -0.18 °C; at CAMK2DA, 2.15 °C; at CK2A1A, 3.81 °C; on DAPK3A it was 7.59 °C. In addition, the ΔTm at 20 µM is 7.97 °C at EPHA5A; -0.76 °C at PIM1A; -2.93 °C on PKMYT1A; 6.16 °C on MARK4A; 8.17 °C at STK17A. Further, the Kd at AAK1 was 6.67 nM.

Consider `CC(C)(C)OC(=O)NCCCOCCOCCOCCCNC(=O)c1cc(Nc2cc(C3CC3)[nH]n2)nc(Nc2ccc(CC#N)cc2)n1` [5-L], for which the ΔTm at 20 µM at MAP2K4 amounted to 2.91 °C; at MAPK1A it was 4.69 °C; on MAPK6, 0.51 °C; on CAMK2DA, 3.75 °C; on CK2A1A, 5.58 °C; on DAPK3A, 7.97 °C. Besides, the shift in melting temperature (ΔTm) at 20 µM at EPHA5A is 4.95 °C; at PIM1A it was -1.48 °C; on PKMYT1A, -0.12 °C; at MARK4A it was 3.21 °C; at STK17A it was 5.46 °C. In addition, the Kd on AAK1 is 35.5 nM.
